In ChEMBL document CHEMBL3046458, “Pyraclostrobin sensitivity of baseline and fungicide exposed isolates of Pyrenophora tritici-repentis” (Crop Prot, 2012):
≈ marks a conversion by molar mass, not a printed value.

Columns and labels:
Format in all cases: functional, organism-based
[1] = test system: Pyrenophora tritici-repentis; assay: Antifungal activity against Pyrenophora tritici-repentis isolate Ptr 90 DL-22 assessed as inhibition of conidia germination after 6 hr incubation; conditions: Ptr 90 DL-22, 6 h
[2] = test system: Pyrenophora tritici-repentis; assay: Antifungal activity against Pyrenophora tritici-repentis isolate Ptr 92 145-2-4 assessed as inhibition of conidia germination after 6 hr incubation in presence of SHAM; conditions: Ptr 92 145-2-4, 6 h
[3] = test system: Pyrenophora tritici-repentis; assay: Antifungal activity against Pyrenophora tritici-repentis isolate Ptr 92 119-2-3 assessed as inhibition of conidia germination after 6 hr incubation; conditions: Ptr 92 119-2-3, 6 h
[4] = test system: Pyrenophora tritici-repentis; assay: Antifungal activity against Pyrenophora tritici-repentis isolate Ptr 92 115-2-3 assessed as inhibition of conidia germination after 6 hr incubation in presence of SHAM; conditions: Ptr 92 115-2-3, 6 h
[5] = test system: Pyrenophora tritici-repentis; assay: Antifungal activity against Pyrenophora tritici-repentis isolate Ptr 90 P7d assessed as inhibition of conidia germination after 6 hr incubation
[6] = test system: Pyrenophora tritici-repentis; assay: Antifungal activity against Pyrenophora tritici-repentis isolate Ptr 90 DL-22 assessed as inhibition of conidia germination after 6 hr incubation in presence of SHAM; conditions: Ptr 90 DL-22, 6 h
[7] = test system: Pyrenophora tritici-repentis; assay: Antifungal activity against Pyrenophora tritici-repentis isolate Ptr 86-4 assessed as inhibition of conidia germination after 6 hr incubation; conditions: Ptr 86-4, 6 h
[8] = test system: Pyrenophora tritici-repentis; assay: Antifungal activity against Pyrenophora tritici-repentis isolate Ptr 92 148-1-1 assessed as inhibition of conidia germination after 6 hr incubation in presence of SHAM; conditions: Ptr 92 148-1-1, 6 h
[9] = test system: Pyrenophora tritici-repentis; assay: Antifungal activity against Pyrenophora tritici-repentis isolate Ptr 1A assessed as inhibition of conidia germination after 6 hr incubation in presence of SHAM
[10] = test system: Pyrenophora tritici-repentis; assay: Antifungal activity against Pyrenophora tritici-repentis isolate Ptr 92 119-2-3 assessed as inhibition of conidia germination after 6 hr incubation in presence of SHAM; conditions: Ptr 92 119-2-3, 6 h
[11] = test system: Pyrenophora tritici-repentis; assay: Antifungal activity against Pyrenophora tritici-repentis isolate Ptr 86-4 assessed as inhibition of conidia germination after 6 hr incubation in presence of SHAM; conditions: Ptr 86-4, 6 h
[12] = test system: Pyrenophora tritici-repentis; assay: Antifungal activity against Pyrenophora tritici-repentis isolate Ptr 92 148-1-1 assessed as inhibition of conidia germination after 6 hr incubation; conditions: Ptr 92 148-1-1, 6 h
[13] = test system: Pyrenophora tritici-repentis; assay: Antifungal activity against Pyrenophora tritici-repentis isolate Ptr 92 115-2-3 assessed as inhibition of conidia germination after 6 hr incubation; conditions: Ptr 92 115-2-3, 6 h
[14] = test system: Pyrenophora tritici-repentis; assay: Antifungal activity against Pyrenophora tritici-repentis isolate Ptr 92 120-2-2 assessed as inhibition of conidia germination after 6 hr incubation; conditions: Ptr 92 120-2-2, 6 h
[15] = test system: Pyrenophora tritici-repentis; assay: Antifungal activity against Pyrenophora tritici-repentis isolate Ptr 1A assessed as inhibition of conidia germination after 6 hr incubation
[16] = test system: Pyrenophora tritici-repentis; assay: Antifungal activity against Pyrenophora tritici-repentis isolate Ptr 92 120-2-2 assessed as inhibition of conidia germination after 6 hr incubation in presence of SHAM; conditions: Ptr 92 120-2-2, 6 h
[17] = test system: Pyrenophora tritici-repentis; assay: Antifungal activity against Pyrenophora tritici-repentis isolate Ptr 4b assessed as inhibition of conidia germination after 6 hr incubation in presence of SHAM
[18] = test system: Pyrenophora tritici-repentis; assay: Antifungal activity against Pyrenophora tritici-repentis isolate Ptr 92 145-2-4 assessed as inhibition of conidia germination after 6 hr incubation; conditions: Ptr 92 145-2-4, 6 h
[19] = test system: Pyrenophora tritici-repentis; assay: Antifungal activity against Pyrenophora tritici-repentis isolate Ptr 4b assessed as inhibition of conidia germination after 6 hr incubation
[20] = test system: Pyrenophora tritici-repentis; assay: Antifungal activity against Pyrenophora tritici-repentis isolate Ptr 90 P7d assessed as inhibition of conidia germination after 6 hr incubation in presence of SHAM

COC(=O)N(OC)c1ccccc1COc1ccn(-c2ccc(Cl)cc2)n1 [PYRACLOSTROBIN]
EC50 [1]: 11.8 ng/mL (≈ 0.0304 µM) | EC50 [2]: 1.5 ng/mL | EC50 [3]: 3.8 ng/mL (≈ 0.0098 µM) | EC50 [4]: 2.3 ng/mL | EC50 [5]: 3.3 ng/mL (≈ 0.00851 µM) | EC50 [6]: 1.6 ng/mL | EC50 [7]: 3.4 ng/mL (≈ 0.00877 µM) | EC50 [8]: 2.3 ng/mL | EC50 [9]: 2.2 ng/mL | EC50 [10]: 2 ng/mL | EC50 [11]: 1.6 ng/mL | EC50 [12]: 5.1 ng/mL (≈ 0.0132 µM) | EC50 [13]: 12.4 ng/mL (≈ 0.032 µM) | EC50 [14]: 8.1 ng/mL (≈ 0.0209 µM) | EC50 [15]: 9.9 ng/mL (≈ 0.0255 µM) | EC50 [16]: 2.1 ng/mL | EC50 [17]: 1.6 ng/mL | EC50 [18]: 3.8 ng/mL (≈ 0.0098 µM) | EC50 [19]: 3.8 ng/mL (≈ 0.0098 µM) | EC50 [20]: 1.6 ng/mL
